Results: US11208387B2, “Macrocyclic broad spectrum antibiotics” (Genentech, Inc., priority 2019, dated 2021)
Values after ≈ are worked out from the molar mass of the structure shown. Read-outs that look alike come from different tables or passages of the source.

Key:
Assay in all cases: Serum MIC, broth micro-dilution
Assay type in all cases: cell-based
[1] = test system: Klebsiella pneumoniae ATCC 700603; conditions: Klebsiella pneumoniae, ATCC700603; 50% v/v mouse serum in Mueller Hinton II cation adjusted Broth, 35° C., 22 hours; Table 4; read-out: K pneumoniae 700603 Serum MIC
Description: (§1) In vitro antimicrobial activity of each compound was determined by measuring minimal inhibitor concentrations (MICs) using the broth micro-dilution technique as approved by the Clinical and Laboratory Standards Institute (CLSI) (Methods for Dilution Antimicrobial Susceptibility Tests for Bacteria that Grow Aerobically; Approved Standard—Eighth Edition. CLSI document M07-A8. Wayne, Pa.: Clinical and Laboratory Standards; 2009). Antibacterial activity was measure against Escherichia coli strain ATCC 25922 (E. coli), Klebsiella pneumoniae ATCC 700603 (K. pneumoniae), Acinetobacter baumannii ATCC 17978 (A. baumannii), and Pseudomonas aeruginosa PA01 (P. aeruginosa), each of which is representative of a clinically relevant Gram-negative species. Cells were inoculated onto plates of Mueller Hinton Agar and grown at 37° C. for 16-18 hours. Inocula suspensions were prepared by scraping cells into 1 mL of testing media (Mueller Hinton II cation adjusted Broth) and diluting to a final OD 600 nm of 0.01.
(§2) Test compounds were prepared in DMSO at a concentration of […]. The compounds were tested under several different dilution formats. In protocol 1, the compound stocks were diluted into testing media at a concentration of 64 μg/ml and serial 2-fold dilutions were made in the same media, in 96-well U bottom microtiter dishes, for a total of 10 compound concentrations. In protocol 2, the compound stocks were diluted into testing media at a concentration of 4 μg/mL and serial 2-fold dilutions were made in the same media, in 96-well U bottom microtiter dishes, for a total of 10 compound concentrations. In protocol 3, compound stocks were diluted into testing media at a concentration of 0.5 μg/mL, with serial 2-fold dilutions conducted as described above. In protocol 4, compound stocks were diluted into testing media at a concentration of 0.13 μg/mL, with serial 2-fold dilutions conducted as described above. Inocula suspensions were added to the 2-fold serial dilutions of test compounds to a final density of OD 600 nm of 0.0005 and incubated at 35° C. for 22 hours. […] To assess antimicrobial activity in the presence of plasma proteins, MICs were also determined in growth media supplemented with 50% serum. Bacterial inocula and test compound dilution plates were prepared using the same protocol as described above for the standard MICs assay, with the exception that a mixture of 50% v/v Mueller Hinton II cation adjusted Broth and 50% v/v mouse sterile filtered serum (Equitech-Bio) was used in place of 100% Mueller Hinton II cation adjusted Broth. The results are listed in Table 3 (MIC, IC50 values micromolar).

[2] = test system: Escherichia coli strain ATCC 25922; conditions: Escherichia coli, ATCC25922; 50% v/v mouse serum in Mueller Hinton II cation adjusted Broth, 35° C., 22 hours; Table 4; read-out: E. coli 25922 Serum MIC
Description: as §1, §2

[3] = test system: Acinetobacter baumannii ATCC 17978; conditions: Acinetobacter baumannii, ATCC17978, 50% v/v mouse serum in Mueller Hinton II cation adjusted Broth, 35° C., 22 hours
Description: as §1, §2

[4] = test system: Pseudomonas aeruginosa PA01; conditions: Pseudomonas aeruginosa, PA01; 50% v/v mouse serum in Mueller Hinton II cation adjusted Broth, 35° C., 22 hours; Table 4; read-out: P. aeruginosa 01 Serum MIC
Description: as §1, §2

[5] = Table 4, read-out: A. baumanii 17978 Serum MIC
[6] = Table 5, read-out: Acinetobacter baumanii 17978 Serum MIC

| Structure (SMILES) | MIC [1] [µM] | MIC [2] [µM] | MIC [3, 5] [µM] | MIC [3, 6] [µM] | MIC [4] [µM] |
| --- | --- | --- | --- | --- | --- |
| Cc1nc(-c2ccc(C3(C)CC3)cc2)nc(C)c1C(=O)N[C@@H](CNS(N)(=O)=O)C(=O)N(C)[C@@H]1C(=O)N[C@@H](C)C(=O)N[C@H](C(=O)O)Cc2ccc(OC[C@H](O)CN)c(c2)-c2cc1cc(OC[C@H](O)CN)c2O [Example 15, (8S,11S,14S)-18-hydroxy-11-methyl-14-[methyl-[(2S)-2-[[4,6-dimethyl-2-[4-(1-methylcyclo-propyl)phenyl]-pyrimidine-5-carbonyl]amino]-3-(sulfamoylamino)-propanoyl]amino]-10,13-dioxo-3,17-bis[(2R)-3-amino-2-hydroxy-propoxy]-9,12-diazatricyclo-[13.3.1.12,6]icosa-1(18),2(20),3,5,15(19), 16-hexaene-8-carboxylic acid] | 0.5 (≈ 0.503 µg/mL) | 0.5 (≈ 0.503 µg/mL) | 8 (≈ 8.04 µg/mL) | 8 (≈ 8.04 µg/mL) | 8 (≈ 8.04 µg/mL) |
| Cc1nc(-c2ccc(C3(C)CC3)cc2)ncc1C(=O)N[C@@H](CCN)C(=O)N(C)[C@@H]1C(=O)N[C@@H](C)C(=O)N[C@H](C(=O)O)Cc2ccc(OC[C@@H](O)CN)c(c2)-c2cc1cc(OC[C@@H](O)CN)c2O [Example 73, (8S,11S,14S)-3,17-bis[(2S)-3-amino-2-hydroxy-propoxy]-14-[[(2S)-4-amino-2-[[4-methyl-2-[4-(1-methylcyclopropyl)-phenyl]pyrimidine-5-carbonyl]amino]-butanoyl]-methyl-amino]-18-hydroxy-11-methyl-10,13-dioxo-9,12-diazatri-cyclo-[13.3.1.12,6]icosa-1(19),2(20),3,5,15,17-hexaene-8-carboxylic acid] | 0.25 (≈ 0.232 µg/mL) | 0.38 (≈ 0.352 µg/mL) | 16 (≈ 14.8 µg/mL) | 16 (≈ 14.8 µg/mL) | 64 (≈ 59.3 µg/mL) |
| CCCCc1ccc(-c2nc(C)c(C(=O)N[C@@H](CNS(N)(=O)=O)C(=O)N(C)[C@@H]3C(=O)N[C@@H](C)C(=O)N[C@H](C(=O)O)Cc4ccc(OC[C@H](O)CN)c(c4)-c4cc3cc(OC[C@H](O)CN)c4O)c(N)n2)cc1 [Example 36, (8S,11S,14S)-14-[[(2S)-2-[[4-amino-2-(4-butylphenyl)-6-methyl-pyrimidine-5-carbonyl]amino]-3-(sulfamoylamino)-propanoyl]-methyl-amino]-3,17-bis[(2R)-3-amino-2-hydroxy-propoxy]-18-hydroxy-11-methyl-10,13-dioxo-9,12-diazatri-cyclo[13.3.1.12,6]icosa-1(18),2(20),3,5,15(19), 16-hexaene-8-carboxylic acid] | 1 (≈ 1.01 µg/mL) | 0.75 (≈ 0.756 µg/mL) | 16 (≈ 16.1 µg/mL) | 16 (≈ 16.1 µg/mL) | 16 (≈ 16.1 µg/mL) |
| Cc1cc(-c2ccc(C(C)(C)C)cc2)nc(N)c1C(=O)N[C@@H](CNS(N)(=O)=O)C(=O)N(C)[C@@H]1C(=O)N[C@@H](C)C(=O)N[C@H](C(=O)O)Cc2ccc(OC[C@H](O)CN)c(c2)-c2cc1cc(OC[C@H](O)CN)c2O [Example 49, (8S,11S,14S)-14-[[(2S)-2-[[2-amino-6-(4-tert-butylphenyl)-4-methyl-pyridine-3-carbonyl]amino]-3-(sulfamoylamino)-propanoyl]-methyl-amino]-3,17-bis[(2R)-3-amino-2-hydroxy-propoxy]-18-hydroxy-11-methyl-10,13-dioxo-9,12-diazatri-cyclo[13.3.1.12,6]icosa-1(18),2(20),3,5,15(19), 16-hexaene-8-carboxylic acid] | 1 (≈ 1.01 µg/mL) | 0.5 (≈ 0.504 µg/mL) | 16 (≈ 16.1 µg/mL) | 16 (≈ 16.1 µg/mL) | 8 (≈ 8.06 µg/mL) |
